# Experimental data as given in US20210145951A1, “COMPOSITIONS AND METHODS FOR SHARED NEO-EPITOPE VACCINES” (Epivax Oncology, Inc., priority 2019, published 2021).
# Experiments:
# CT26 tumor cells = assay: CT26 tumor growth and survival after vaccination (Example 1); type: in vivo; conditions: CT26 in Balb/c mice
# [1] = test system: CT26 murine colon tumor cells; assay: CT26 tumor growth with or without poly-ICLC (Example 13); type: in vivo, BALB/c mice; conditions: day 25 post-tumor implantation, relative to PBS or poly-ICLC alone
# Experimental: The goal of this experiment was to determine the requirement for the inclusion of the adjuvant poly-ICLC in a peptide vaccine containing ANCER™ selected neoantigens. For this experiment, female BALB/c mice were implanted subcutaneously with 3×10^5 CT26 murine colon tumor cells. Tumor growth was monitored by caliper measurement and mice were sacrificed 45 days after tumor implantation or when tumor volumes reached 2000 mm^3, whichever came first.
# Four vaccine groups were tested (n=10 mice/group):
# Peptide vaccines were comprised of 20 different ANCER™ selected peptides at a concentration of 5 μg/peptide for a total dose of 100 μg peptide per immunization. Mice were immunized subcutaneously in the opposite flank from tumor implantation twice per week for three weeks, starting at day 4 post-tumor implantation.
substance,measurement,setting,value
poly-ICLC,"mice reaching a tumor volume of at least 2,000 mm^3 (endpoint) by day 28",CT26 tumor cells; N=10,60%
same,mice that survived past day 28,CT26 tumor cells; N=10,Less than 50%
same,mice that survived the 45 days of the experiment,"CT26 tumor cells; N=10, in words",None
same,tumor burden compared to Group 1 (PBS),CT26 tumor cells; sc injections days 5-26,no reduction in tumor burden
same,control of tumor growth,[1],no difference in tumor growth kinetics
